# Reference: patent US11993640B2, “Treating inflammatory lung disease” (United States Government as represented by the Department …, priority 2019, dated 2024)
# Non-standard residues stand in square brackets, D forms with d. Residues, ends and D or L forms follow the SMILES beside them. *: point of attachment. Phe(F5) = N[C@@H](Cc1c(F)c(F)c(F)c(F)c1F)C(=O)O; hArg = N=C(N)NCCCC[C@H](N)C(=O)O; 12Ado = NCCCCCCCCCCCC(=O)O; Nle = CCCC[C@H](N)C(=O)O; Orn = NCCC[C@H](N)C(=O)O; Abu = CC[C@H](N)C(=O)O; PhAc = O=C(Cc1ccccc1)*
# What was measured:
# [1] = test system: C57Bl/6J mice treated with bleomycin; test: RNAseq and pathway analysis of lung tissue of bleomycin-treated mice; format: in vivo, mouse; conditions: bleomycin 28 days, MIA-602 versus vehicle
# Experimental: Bleomycin and GHRH-R antagonist treatment. Mice were treated with 0.8 units of bleomycin (Bleomycin for Injection USP, Hospira, Lake Forest, IL) intraperitoneally (IP) on days 1, 3, 7, 10, 14 and 21 (Collins S, Chan-Li Y, Oh M, Vigeland C, Limjunyawong N, Mitzner W, Powell J D, Horton M R (2016). JCI Insight 1(4):1-13). Mice (randomly assigned) were simultaneously treated subcutaneously (sc) with MIA-602 (5 μg/day) or its vehicle (100 μL/day). MIA-602 was dissolved in DMSO (ACS grade; Sigma-Aldrich) and diluted 1:500 in normal saline for daily sc injection on days 0-21.
# RNA isolation. RNA was extracted from fixed lung tissue in paraffin blocks using a Quick-RNA™ FFPE Kit (R1008, Zymo Research, Irvine, CA) following the manufacturer's protocol (Patel P, Selvarajah S, Guerard K, Bartlett J, Lapointe J, Berman D, Okello J, Park P (2017). PLoS ONE 12:e0179732). […]
# RNAseq and Pathway analyses. […] Cluster generation and sequencing was done on the Illumina cBOT and HiSeq 3000 using reagents provided by Illumina, finally generating >32 million single-end 100 base reads per sample. […]
# Gene counts were normalized using trimmed mean of M-values (TMM) method. Differential expression between groups was calculated with the exact test implemented in edgeR (Robinson M, McCarthy D, Smyth G (2010). Bioinformatics 26:139-140). […]
# RT4 cells = test: In vitro cell viability, urothelial cancer RT4; format: cell-based, human; conditions: 5 μM, 72 h; relative to MIA602 = 1; Table 3A
# Experimental: The inhibitory effects of the various synthesized GHRH antagonists were tested in cell proliferation assays in various human cancer cell lines including stomach cancer (KATOIII, N87), colon cancer (HT-29), urothelial cancer (J82, RT4), pancreatic cancer (PANC-1, CFPAC-1), prostatic cancer (PC3), breast cancer (MX-1, HCC1806), ovarian cancer (SK-OV-3, OVCAR-3) and lung cancer (HCC827, H460).
# Cell culture. Human cancer cell lines including pancreatic (PANC-1 and CFPAC-1), lung (HCC827 and H460), stomach (NCI-N87 and KATOIII), urothelial (J82, RT4), prostatic (PC3), breast (MX-1 and HCC 1806), colorectal (HT-29), and ovarian (SK-OV-3 and OVCAR-3) were obtained from the American Type Culture Collection (ATCC) and cultured at 37° C. in a humidified 95% air/5% CO2 atmosphere in the medium recommended by ATCC.
# In vitro cell viability. Cell viability was analyzed as follows: cancer cells including pancreatic (PANC-1 and CFPAC-1), lung (HCC827 and H460), stomach (NCI-N87 and KATOIII), urothelial (J82, RT4), prostatic (PC3) and breast (MX-1 and HCC 1806), colorectal (HT-29) and ovarian (SK-OV-3 and OVCAR-3) were grown on 96 well plates to ˜60% confluence, the cells were starved for 24 h in culture medium containing 0.5% FBS. Cells were then treated with GHRH antagonists MIA602 AVR compounds at concentrations of 1, 2.5 or 5 μM, or vehicle (0.1% DMSO) in quintuplicates for 72 hours. The medium was replaced every 48 hours. Cell viability was measured using CellTiter 96 aqueous one solution kit (Promega). Inhibitory effects of tested AVR compounds in comparison to that of MIA602 are presented as inhibitory potency.
# Inhibitory effects of selected AVR compounds in comparison to that of MIA602 are presented as inhibitory potency (e.g., percentage of inhibition). […] The cell lines tested including lung cancer HCC827 (FIG. 2A), pancreatic cancer CFPAC-1 (FIG. 2B), stomach cancer N87 (FIG. 2C), colon cancer HT-29 (FIG. 2D), breast cancers MX-1 and HCC1806 (FIGS. 2E, F). […]
structure (smiles),measurement,setting,value
"CCCC[C@H](NC(=O)[C@@H](NC(=O)[C@H](CC(=O)O)NC(=O)[C@H](CCC(N)=O)NC(=O)[C@H](CC(C)C)NC(=O)[C@H](CC(C)C)NC(=O)[C@H](CCCN)NC(=O)[C@H](Cc1c[nH]cn1)NC(=O)[C@H](C)NC(=O)[C@H](CO)NC(=O)[C@H](CC(C)C)NC(=O)[C@H](CCC(N)=O)NC(=O)[C@H](CC)NC(=O)[C@H](CC(C)C)NC(=O)[C@@H](NC(=O)[C@H](CCCN)NC(=O)[C@H](Cc1c[nH]cn1)NC(=O)[C@H](Cc1ccc(OC)cc1)NC(=O)[C@H](CCCCNC(=N)N)NC(=O)[C@H](C)NC(=O)[C@@H](NC(=O)[C@H](Cc1c(F)c(F)c(F)c(F)c1F)NC(=O)[C@@H](NC(=O)[C@H](C)NC(=O)[C@H](CC(=O)O)NC(=O)[C@@H](CCCNC(=N)N)NC(=O)[C@H](Cc1ccc(O)cc1)NC(=O)CCCCCCCCCCCNC(=O)Cc1ccccc1)[C@@H](C)CC)[C@@H](C)O)C(C)C)[C@@H](C)CC)C(=O)N[C@H](CCCNC(=N)N)C(=O)N[C@@H](CCCCNC(=N)N)C(N)=O [MIA-602, PhAC-Ada, Tyr D-Arg, Asp, Ala, Ile, 5FPhe, Thr, Ala, Har, Tyr(Me), His, Orn, Val, Leu, Abu, Gin, Leu, Ser, Ala, His, Orn, Leu, Leu, Gin, Asp, Ile, Nle, D-Arg, Har NH2, reference compound] ({PhAc-12Ado}-Y[dR]DAI[Phe(F5)]TA[hArg]Y(Me)H[Orn]VL[Abu]QLSAH[Orn]LLQDI[Nle][dR][hArg]-NH2)","Lung gene expression, RNA-seq pathway analysis",[1],"suppression of the adaptive immune response, T cell differentiation and activation and cytokine production"
same,"Relative inhibitory potency, Urothelial RT4",RT4 cells,1
